# Source: patent US20050272649A1, “Conjoint administration of morphogens and ACE inhibitors in treatment of chronic renal failure” (priority 2002, published 2005)
# “Also recorded” adds a separate entry of the source. Read-outs that look alike come from different tables or passages of the source.
# Legend:
# hypertension = conditions: enalapril 20 mg per day; three-month study; cited from earlier work
# [1] = test system: streptozotocin diabetic Sprague-Dawley rats; assay type: in vivo; conditions: for GFR (ml/min/100 g bw): inulin clearance at 32 weeks; for mesangial matrix accumulation (in words): PAS / Trichrome histology at 32 weeks; for kidney weight / renal hypertrophy (in words): treatment weeks 16-32, versus vehicle-treated diabetic rats
# Experimental: A long-term streptozotocin model of diabetic nephropathy was used to test and compare the therapeutic actions of BMP-7 with those of Enalapril. The study design was a treatment protocol beginning at 16 weeks when glomerular hypertrophy and proteinuria were established. The effects of therapy with BMP-7 (10, 30, or 100 μg/kg iv, biw) were compared to a maximal dose of Enalapril (20 mg/kg) and to a vehicle control. […] The GFR of 32 week diabetic Enalapril treated rats was 0.58±0.06 (not significant compared to vehicle treated and sham injected rats 0.55±0.02).
# Animals: Female Sprague-Dawley rats 10 weeks of age weighing 190-220 g were used. Animals were allowed free access to standard rat chow and to tap water. Diabetes mellitus was induced by a single tail-vein injection of Streptozotocin (STZ 62 mg/kg of body weight, Sigma chemical company, St. Louis, Mo.) dissolved in normal saline at day 0. The diabetic state was confirmed 72 hours later by the determination of blood glucose concentration>300 mg/dl. From day 3, all the diabetic rats received daily subcutaneous injections of 1.0-7.0 u human recombinant long-acting insulin injection (Eli Lilly & Co., Indianapolis, Ind.) as required to maintain the blood glucose concentration between 300-500 mg/dl. Tail blood glucose levels were measured twice a week with an Accu—Chek™ Advantage meter (Roche Diagnostic Corporation, Indianapolis, Ind.). Body weights were taken once a week. Food and water intake were monitored daily.
# Renal hypertrophy was well developed at 16 weeks prior to treatment with vehicle, BMP-7, or enalapril. […], animals were divided into 8 groups. Group 1 were 16 weeks of DM. Group 2 were 16 weeks normal controls. Group 3 DM animals were treated with tail-vein injection of vehicle twice a week for 16 weeks. Group 4, Group 5, and Group 6 were DM animals treated with tail-vein injections of BMP-7 100, 30, and 10 μg/kg body weight respectively twice a week for 16 weeks. Group 7 were treated with Enalapril 20 mg/kg through the drinking water for 16 weeks. […] Group 1 and Group 2 animals were sacrificed at 16 weeks. The others were sacrificed at 32 weeks. All treatments began at 16 weeks and continued through 32 weeks. Glomerular filtration rate (GFR), urine albumin excretion, kidney weight, glomerular area, mesangial matrix area, interstitial volume, monocyte and macrophage infiltration, thickness of glomerular basement membrane (GBM) and glomerulosclerosis were measured.
# Renal Function: In all animals, glomerular filtration rate (GFR) was measured as the clearance of inulin. Rats were anesthetized with a Ketamine/Xylozine cocktail. A catheter was inserted into the femoral vein under a dissecting microscope for infusion. Another catheter was placed into the femoral artery for collecting blood samples. Urine was collected by bladder cannulation.
# After the completion of surgery, a bolus of 2 ml/kg of 3% inulin (Cypros Pharmaceutical Corp, W. Carlsbad, Calif.) and 0.2% p-aminohippurate (PAH) in normal saline was infused as a priming load, followed by a sustaining infusion of the same solution at the rate of 8 ml/h·kg. Urine collection was initiated for three 20-minute collection periods after an hour of equilibration. An arterial blood sample was obtained during each clearance period. Plasma and urine were analyzed for inulin.
# Urine volume was measured and urinary protein concentration was determined with a Bio-Rad protein assay.
# Preparation of Kidneys: After the clearance studies, the rats were euthanized. Both kidneys were rapidly removed and placed in ice-cold phosphate buffered saline (PBS). Kidneys were weighed and then sliced on a cold glass plate. Two 2 mm coronal sections were immersed in Histochoice and in 10% buffered formalin. Kidney sections were embedded in paraffin and cut at 3 μm and stained with hematoxylin and eosin, Gomori's Trichrome and periodic acid Schiff (PAS).
# Renal Morphology: The morphometric analysis was done in a blind manner. […]
# [2] = test system: alloxan-induced diabetic Sprague-Dawley rats; experiment: Alloxan-induced diabetic nephropathy model; assay type: in vivo, rat
# Experimental: Similar to streptozotocin, alloxan kills pancreatic β cells and induces type I diabetes (for review, see Cheta et al. (1998) J Pediatr Endocrinol Metab 11: 11-9). Alloxan is also widely used to induce experimental diabetic nephropathy in animals (FIG. 25). Adult female Sprague-Dawley rats (weighing 200-250 g) were intraperitoneally injected with alloxan (70 mg/kg body weight) to induce hyperglycemia. Renal arteries were clamped just prior to injection to prevent direct nephrotoxicity, and then clamps were removed 5 minutes after injection. At week 16 when renal function declined, animals were treated with OP-1 (10 μg/kg body weight, 3×/week, or 30 μg/kg body weight, 1×/week), enalapril (100 mg/L in drinking water) or the combination of OP-1 and enalapril. Control animals without alloxan treatment were handled in all other ways like treated animals. The treatment duration was 12 weeks. All rats were sacrificed after […].
# [3] = Enalapril 20 mg/kg in drinking water (100 mg/l)
# [4] = Enalapril 20 mg/kg in drinking water (100 mg/l), weeks 16-32
# [5] = Enalapril 20 mg/kg in drinking water (100 mg/l), weeks 16-32, at 32 weeks
# [6] = treatment weeks 16-32, listed as Enalapril
smiles,measurement,setting,value
"CCOC(=O)[C@H](CCc1ccccc1)N[C@@H](C)C(=O)N1CCC[C@H]1C(=O)O [enalapril, N-(1-ethoxycarbonyl-3-phenylpropyl)-L-ananyl-L-proline, reference compound]",decrease in diastolic blood pressure,hypertension,7.2 mm Hg
same,decrease in systolic blood pressure,hypertension,8.2 mm Hg
same,renal BMP-7 expression (in situ hybridization),[1]; 32 weeks,restored BMP-7 expression at high levels in the collecting duct; also recorded: restored BMP-7 expression in its normal pattern at high levels; also recorded: restored the normal distribution of BMP-7 expression
same,renal Wnt4 expression (in situ hybridization),[1]; 32 weeks,without affecting Wnt4 expression; also recorded: do not affect Wnt4 expression; also recorded: had no effect on Wnt4 expression
same,monocyte/macrophage tubulointerstitial infiltration,"[1]; ED-1 positive cells, 32 weeks",decreased the tubulointerstitial infiltration
same,Cause-Mortality hypoglycemia,[1]; [3],1/10
same,Cause-Mortality ketoacidosis,[1]; [3],1/10
same,Cause-Mortality unknown,[1]; [3],1/10
same,Body Weight (g) End,[1]; [4],294.9 ± 4.4 g
same,Body Weight (g) Weight Gain,[1]; [4],78.7 ± 5.9 g
same,"Protein Ex (mg/day), urine protein excretion",[1]; [5],33.59 ± 7.58 mg/day
same,kidney weight,[1]; [5],1.09 ± 0.04 g
same,kidney weight,"[1]; Enalapril 20 mg/kg in drinking water (100 mg/l), weeks 16-32, at 32 weeks, listed as E",1.09 ± 0.04 g
same,Mortality,"[1]; Enalapril 20 mg/kg in drinking water (100 mg/l), weeks 16-32, deaths/animals",3/10
same,GFR (ml/min/100 g bw),"[1]; Enalapril 20 mg/kg in drinking water (100 mg/l), weeks 16-32, listed as E",0.58 ± 0.06 ml/min/100 g bw
same,GFR (ml/min/100 g bw),"[1]; Enalapril 20 mg/kg in drinking water (100 mg/l), weeks 16-32, listed as Enalapril",0.58±0.06 ml/min/100 g bw
same,cortical interstitial area / volume,"[1]; Enalapril 20 mg/kg, weeks 16-32, DM vehicle 13.1±0.7%",10.3±0.4%
same,mesangial matrix accumulation (in words),[1],more mesangial matrix accumulation
same,mesangial matrix accumulation (in words),[1]; listed as Enalapril,less effective than intermediate or high dose BMP-7 in eliminating accumulation of mesangial matrix
same,glomerulosclerosis (in words),[1]; treatment weeks 16-32,decreased glomerular sclerosis; also recorded: markedly reduced
same,urine protein excretion / proteinuria / albuminuria (in words),[1]; treatment weeks 16-32,reversed
same,GFR (in words),"[1]; treatment weeks 16-32, versus vehicle-treated diabetic and normal rats",normal or greater; also recorded: restored GFR to normal or slightly above normal
same,kidney weight / renal hypertrophy (in words),[1],partially reversed diabetic renal hypertrophy
same,kidney weight / renal hypertrophy (in words),[1]; listed as Enalapril,equal in partially reversing kidney hypertrophy; also recorded: equally effective
same,glomerular area / glomerular hypertrophy (in words),[1]; [6],significantly decreased; also recorded: equally effective
same,glomerulosclerosis (in words),[1]; [6],less effective in preventing glomerulosclerosis; also recorded: less so by Enalapril
same,interstitial volume (in words),[1]; [6],significantly decreased; also recorded: equally effective
same,systolic blood pressure (tail artery cuff),[1]; [6],controlled hypertension throughout the course of therapy; also recorded: reversed the hypertension of the diabetic rats; also recorded: normalized blood pressure during the entire 16 week course of therapy; also recorded: restored blood pressure to normal
same,proteinuria level (in words),[2]; 12 weeks of treatment,reduces the proteinuria level; also recorded: reduce the preteinuria level
same,serum creatinine level (in words),[2]; 12 weeks of treatment,decreases the serum creatinine level
same,serum creatinine level (in words),"[2]; 12 weeks of treatment, listed as elalapril",reduces the serum creatinine level at a lesser degree
same,proteinuria level,"[2]; enalapril 100 mg/L drinking water alone, or combination of OP-1 and enalapril, 12 weeks, diabetic about 180",~140 mg/dL/24 hr
